Data taken from patent US9670219B2, “Tetrahydrooxepinopyridine compound” (ASTELLAS PHARMA INC., priority 2015, dated 2017).
Counter-ions that a name gives are not always drawn.

Assays:
[1] = molecular target: T1, human α7 nACh receptor (Homo sapiens, UniProt P36544); experiment: Electrophysiological evaluation for human α7 nACh receptor (Qpatch HTX or Qube current response); format: cell-based; design: key: positive: an inward current response specific to a human α7 nACh receptor was obtained when 3 μM of a test drug had been added; negative: a specific current response was not observed; conditions: 3 μM test drug added simultaneously with 100 μM AChCl; voltage-clamped at −90 mV
T1 construct: expressed in transfected cells; host or cells: HEK293 cells (ATCC CRL-1573), transient co-transfection by electroporation with rat RIC3 (NM_001115045.3)
T1 sequence (P36544 23-502): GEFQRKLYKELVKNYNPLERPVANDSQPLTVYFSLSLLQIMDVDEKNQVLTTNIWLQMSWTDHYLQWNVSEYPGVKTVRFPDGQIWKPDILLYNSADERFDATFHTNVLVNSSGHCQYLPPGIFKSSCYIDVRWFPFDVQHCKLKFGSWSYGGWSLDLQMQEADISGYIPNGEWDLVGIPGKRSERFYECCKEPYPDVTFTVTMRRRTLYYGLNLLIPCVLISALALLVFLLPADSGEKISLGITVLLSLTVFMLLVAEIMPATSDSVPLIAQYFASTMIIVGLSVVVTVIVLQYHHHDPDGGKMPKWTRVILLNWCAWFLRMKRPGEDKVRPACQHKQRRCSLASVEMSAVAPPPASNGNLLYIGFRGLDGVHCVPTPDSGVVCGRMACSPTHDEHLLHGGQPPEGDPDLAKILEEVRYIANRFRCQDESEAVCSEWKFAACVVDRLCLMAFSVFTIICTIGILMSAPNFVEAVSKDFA
Protocol: The PAM activity of a test drug was evaluated by a current response in the presence of an α7 nACh receptor agonist Acetylcholine chloride (Sigma) (hereinafter, also referred to as AChCl) using Qpatch HTX (Biolin Scientific) or Qube (Biolin Scientific). This test cannot detect a small current response of AChCl alone. The current response can be detected only in the case where the test drug has a PAM activity.
Extracellular fluid (pH 7.4): NaCl 145 mM, KCl 4 mM, HEPES 10 mM, CaCl2 2 mM, MgCl2 1 mM.
Intracellular fluid (pH 7.2): KF 120 mM, KCl 20 mM, EGTA 0.1 mM, HEPES 10 mM, MgCl2 2 mM.
The cells were obtained in the same manner as in Test Example 1.
The response of a human α7 nACh receptor with the addition of a test drug was measured by the following experiment. Transient expression cells obtained by the method described above were subjected to the experiment after allowing to stand overnight at 37° C. The test drug was dissolved in DMSO, and then made to a final concentration of 3 μM using extracellular fluid. The agonist AChCl was made to a final concentration of 100 μM. The membrane potential was voltage-clamped at −90 mV. The current response was measured by multi-hole mode at the time of simultaneous addition of the test drug and AChCl to the cells, using QPatch HTX or Qube.
As a result of the tests above, the case where an inward current response specific to a human α7 nACh receptor was obtained when 3 μM of a test drug had been added was determined as positive, and the case where a specific current response was not observed was determined as negative. It should be noted that, when the agonist concentration is 0, the current response was not observed even with the addition of a test drug.

[2] = molecular target: T1, human α7 nACh receptor; experiment: Evaluation for human α7 nACh receptor using FLIPR (intracellular calcium response, PAM activity); format: cell-based; conditions: for Max: maximum response of test drug with agonist PNU-282987, relative to maximum response of PNU-120596 = 100%; for EC20: test drug concentration giving 20% response, maximum response of PNU-120596 with agonist PNU-282987 (0.6 μM) = 100%, HEK293 cells co-expressing human α7 nACh receptor/rat RIC3
Protocol: Assay buffer: HBSS buffer containing 1.25 mM probenecid.
The PAM activity of a test drug was evaluated in terms of Ca^2+ dye-based fluorescence intensity for an intracellular calcium response in the presence of an α7 nACh receptor-selective agonist PNU-282987 (CAS registry number: 123464-89-1, Tocris) using a FLIPR tetra (Molecular Devices).
In the case where a concentration-response curve has been obtained in which the logarithm of a concentration of a test drug is on the abscissa and the ratio of a response (hereinafter, also referred to as calcium response) is on the ordinate, this test drug has been determined to have a PAM activity.
In this test, the agonist (PNU-282987) elicited a calcium response only in the presence of PAM (PNU-120596).
The coding sequence of a human α7 nACh receptor (accession number: NM_000746.5) was subcloned into a pCEP4 vector (Life Technologies). The coding sequence of a rat chaperone protein RIC3 (accession number: NM_001115045.3) was subcloned into a pcDNA3.1/Hygro (+) vector (Life Technologies). The resulting constructs were transfected into HEK293 cells (ATCC number: CRL-1573) by an electroporation method using Neon (Life Technologies).
The transiently expressing cells obtained in the manner described above were seeded at a density of 8×10^3 cells/well onto a 384-well plate (Becton Dickinson) and allowed to stand overnight at 37° C. DMEM+10% FBS was used as a medium.
On the next day, the medium was removed, and Fluo4-AM (Dojindo) prepared using an assay buffer was applied, followed by allowing to stand for 1 hour. The test drug was dissolved in DMSO and then made to a final concentration of 0.03 to 100 μM (3-fold dilutions) with an assay buffer. Similarly, PNU-120596 which is a known PAM was made to a final concentration of 0.003 to 10 μM (3-fold dilutions). PNU-282987 which is an agonist was made to a final concentration of 0.6 μM. Thereafter, the test drug was applied to the cells using a FLIPR tetra, the agonist (PNU-282987) was added 5 minutes later, and the fluorescence intensity at that time was detected.
As a control, using (1) a group with neither addition of a test drug, PAM (PNU-120596) nor that of agonist (PNU-282987), the response thereof was set to 0%. Using (2) a group with the addition of PAM (PNU-120596) and agonist (PNU-282987), the maximum response thereof was set to 100%.
To quantitatively compare the PAM activity of the test drug, an EC20 value and a Max value were used as activity indicators. […] The EC20 value was calculated using a non-linear regression analysis from the concentration-response curve of a human α7 nACh receptor with the addition of a test drug. The Max value refers to a maximum response value. The Max value is expressed in terms of % value of the maximum response of a test drug in the presence of an agonist (PNU-282987) relative to when the maximum response of PAM (PNU-120596) in the presence of an agonist (PNU-282987) is set to 100%.

SMILES | Dat. 1 (Determination) [1] | Max [2] [%] | EC20 [2] [µM] | also measured
O=C(Nc1ccc(Cl)cn1)c1cc(N2CCC[C@H](F)C2)nc2c1CCOCC2 [Ex 76, N-(5-chloropyridin-2-yl)-2-[(3S)-3-fluoropiperidin-1-yl]-5,6,8,9-tetrahydrooxepino[4,5-b]pyridine-4-carboxamide benzenesulfonate] | positive |  |  | 
Cc1cncc(NC(=O)c2cc(N3CCC[C@@H]3C)nc3c2CCOCC3)n1 [Ex 40, N-(6-methylpyrazin-2-yl)-2-[(2S)-2-methylpyrrolidin-1-yl]-5,6,8,9-tetrahydrooxepino[4,5-b]pyridine-4-carboxamide hydrochloride] | positive |  |  | 
O=C(N[C@H]1CN2CCC1CC2)c1ccc(Cl)cc1 [PNU-282987, N-(3R)-1-azabicyclo[2.2.2]octo-3-yl-4-chlorobenz amide, reference compound] |  |  |  | calcium response, substance alone ([2]; agonist alone or test compound alone): not elicited
O=C(Nc1cccnn1)c1cc(N2CCC[C@@H](C(F)(F)F)C2)nc2c1CCOCC2 [Ex 7, N-(pyridazin-3-yl)-2-[(3R)-3-(trifluoromethyl)piperidin-1-yl]-5,6,8,9-tetrahydrooxepino[4,5-b]pyridine-4-carboxamide fumarate] |  | 94.8 | 0.512 | 
C[C@@H]1CN(c2cc(C(=O)Nc3ccc(F)cn3)c3c(n2)CCOCC3)C[C@H](C)O1 [Ex 12, 2-[(2R,6S)-2,6-dimethylmorpholin-4-yl]-N-(5-fluoropyridin-2-yl)-5,6,8,9-tetrahydrooxepino[4,5-b]pyridine-4-carboxamide] |  | 96.9 | 4.35 | 
C[C@H]1CCCCN1c1cc(C(=O)Nc2cnccn2)c2c(n1)CCOCC2 [Ex 70, 2-[(2S)-2-methylpiperidin-1-yl]-N-(pyrazin-2-yl)-5,6,8,9-tetrahydrooxepino[4,5-b]pyridine-4-carboxamide hydrochloride] | positive |  |  | 
Cc1ncc(NC(=O)c2cc(N3CCC[C@H]3C)nc3c2CCOCC3)nc1C [Ex 46] | positive |  |  | 
O=C(Nc1ccc(Cl)cn1)c1cc(N2CCC(F)CC2)nc2c1CCOCC2 [Ex 51, N-(5-chloropyridin-2-yl)-2-(4-fluoropiperidin-1-yl)-5,6,8,9-tetrahydrooxepino[4,5-b]pyridine-4-carboxamide] | positive |  |  | 
COc1ccc(NC(=O)c2cc(N3CCC[C@H]3C)nc3c2CCOCC3)nn1 [Ex 36] | positive |  |  | 
C[C@@H]1CN(c2cc(C(=O)Nc3ccc(Cl)cn3)c3c(n2)CCOCC3)C[C@H](C)O1 [Ex 18, N-(5-chloropyridin-2-yl)-2-[(2R,6S)-2,6-dimethylmorpholin-4-yl]-5,6,8,9-tetrahydrooxepino[4,5-b]pyridine-4-carboxamide hydrochloride] | positive | 79.2 | 1.02 | 

Further lines, with some results ahead:

Dat. 1 (Determination) [1] | Max [2] [%] | EC20 [2] [µM] | SMILES | also measured
 | 99.8 | 2.72 | O=C(Nc1cccnn1)c1cc(N2CCC[C@H](C(F)(F)F)C2)nc2c1CCOCC2 [Ex 1, N-(pyridazin-3-yl)-2-[(3S)-3-(trifluoromethyl)piperidin-1-yl]-5,6,8,9-tetrahydrooxepino[4,5-b]pyridine-4-carboxamide fumarate] | 
positive |  |  | CO[C@H]1CCN(c2cc(C(=O)Nc3cccc(C#N)c3)c3c(n2)CCOCC3)C1 [Ex 48, N-(3-cyanophenyl)-2-[(3S)-3-methoxypyrrolidin-1-yl]-5,6,8,9-tetrahydrooxepino[4,5-b]pyridine-4-carboxamide hydrochloride] | 
positive |  |  | O=C(Nc1cccnn1)c1cc(N2CCC(F)CC2)nc2c1CCOCC2 [Ex 50] | 
 | 69.3 | 3.52 | CC1(C)CN(c2cc(C(=O)Nc3cccnn3)c3c(n2)CCOCC3)CC(C)(C)O1 [Ex 9, N-(pyridazin-3-yl)-2-(2,2,6,6-tetramethylmorpholin-4-yl)-5,6,8,9-tetrahydrooxepino[4,5-b]pyridine-4-carboxamide hydrochloride] | 
positive |  |  | C[C@H]1CCCCN1c1cc(C(=O)Nc2cccnn2)c2c(n1)CCOCC2 [Ex 69, 2-[(2S)-2-methylpiperidin-1-yl]-N-(pyridazin-3-yl)-5,6,8,9-tetrahydrooxepino[4,5-b]pyridine-4-carboxamide hydrochloride] | 
positive |  |  | Cc1ncc(NC(=O)c2cc(N3CCC[C@@H]3C)nc3c2CCOCC3)nc1C [Ex 55] | 
